Results: US7988956B2, “Hydrolytically degradable carbamate derivatives of poly(ethylene glycol)” (Nektar Therapeutics, priority 1999, dated 2011)

Columns and labels:
[1] = tested on: Micrococcus lysodeikticus; assay: Bioactivity measurement of reversible lysozyme conjugate (Sigma HEW lysozyme protocol, decrease in absorbance at 450 nm); assay type: biochemical; details: 66 mM sodium phosphate buffer pH 6.24
Description: Bioactivity of free lysozyme, PEG conjugates of lysozyme and lysozyme recovered from hydrolysis of the conjugates were measured by an assay from the standard protocol of Sigma for hen's egg white (HEW) lysozyme EC.3.2.1.17. A solution containing the unmodified or PEG-modified lysozyme was diluted to 5.5 μg/ml in a 66 mM sodium phosphate buffer (pH 6.24). A suspension of 1.5 mg Micrococcus lysodeikticus in 10 ml of 66 mM phosphate buffer (pH 6.24) was allowed to equilibrate at room temperature until the absorbance at 450 nm was constant. Then 0.1 ml of a lysozyme solution was placed in a 1 cm light path quatz cuvette containing 2.5 ml of the substrate suspension. The decrease in the absorbance at 450 nm was recorded and the activity was determined from the maximum linear rate. Eighty-two percent of lysozyme bioactivity was recovered from the m-PEG-lysozyme conjugate, while the mPEG lysozyme had undetectable bioactivity prior to hydrolysis.

[2] = Hydrolysis of the PEG conjugate of lysozyme monitored by capillary electrophoresis; assay type: physicochemical; details: after hydrolysis for 10 days at pH 7 and 37° C.; CE, FIG. 1 Curve B
Description: The conjugates prepared as described above were placed at 37° C. and at room temperature and hydrolysis was monitored by capillary electrophoresis (CE).
CE conditions: A solution of 25 mM phosphate buffer, containing 0.1 mg/ml PEO 600K, pH 2.7 was flushed through the capillary for approximately 15-20 min. A voltage of 15 kV was applied until a smooth baseline was obtained. The 25 mM phosphate buffer solution was again flushed through for approximately 5 min and the capillary was then ready for sample injection. The sample, which was adjusted to pH 2 by a phosphate buffer (0.1 M, pH 2), was injected hydrostatically for about […] at a height of approximately 6 inches. A voltage of 15 kV was applied throughout the run with a current between 24 and 30 μA. The protein and PEG-protein conjugate were detected by a UV monitor at 214 nm. The CE instrument consists of a high-voltage power supply (Spellman CZE1000R), a fused silica capillary (75 μm i.d., 360 μm o.d., Polymicro Technologies, Phoenix, Ariz.) and a linear 200 UV/VIS monitor supplied with a deuterium lamp and a capillary flow cell. The total length of the capillary was 64.5 cm, with a 1 cm optical window at 40 cm from the anode. UV data was retrieved and stored using LabVIEW version 4.0.1 software (National Instruments).

Substance: mPEG-lysozyme conjugate: mPEG-lysozyme conjugate prepared with N-mPEG benzamide-m-succimidyl carbonate; mono, di and tri PEGylated lysozyme
- bioactivity prior to hydrolysis ([1]; PEG conjugate before hydrolysis): undetectable
- lysozyme bioactivity recovered from the conjugate ([1]; lysozyme recovered from hydrolysis of the conjugate): Eighty-two
- free lysozyme released [2]: more than 85%
